According to ChEMBL document CHEMBL4138157, “Synthesis, antibacterial properties and 2D-QSAR studies of quinolone-triazole conjugates” (2018):
≈ marks a conversion by molar mass, not a printed value.

Experiments:
[1] = tested on: Salmonella typhi; test: Antibacterial activity against Salmonella typhi ATCC 19430 after 18 hrs by agar dilution method; format: functional, Salmonella enterica subsp. enterica serovar Typhi; settings: Salmonella enterica, ATCC 19430, 18 h
[2] = tested on: Streptococcus pyogenes; test: Antibacterial activity against Streptococcus pyogenes ATCC 19615 after 18 hrs by agar dilution method; format: functional; settings: ATCC 19615, 18 h
[3] = tested on: Pseudomonas aeruginosa; test: Antibacterial activity against Pseudomonas aeruginosa ATCC 27853 after 18 hrs by agar dilution method; format: functional; settings: ATCC 27853, 18 h
[4] = tested on: Escherichia coli; test: Antibacterial activity against Escherichia coli ATCC 25922 after 18 hrs by agar dilution method; format: functional; settings: ATCC 25922, 18 h

SMILES | MIC [1] [µM] | MIC [2] [µM] | MIC [3] [µM] | MIC [4] [µM]
O=C(O)c1cn(C2CC2)c2cc(N3CCNCC3)c(F)cc2c1=O [CIPROFLOXACIN] | 7.2 (≈ 2.39 µg/mL) | 3770 (≈ 1250 µg/mL) | 14.5 (≈ 4.8 µg/mL) | 
C#CCN1CCN(c2cc3c(cc2F)c(=O)c(C(=O)O)cn3CC)CC1 | 1430 (≈ 512 µg/mL) | 1430 (≈ 512 µg/mL) | > 2870 | > 2870
C[C@@H](C(=O)O)n1cc(CN2CCN(c3cc4c(cc3F)c(=O)c(C(=O)O)cn4C3CC3)CC2)nn1 | 2580 (≈ 1250 µg/mL) | 2580 (≈ 1250 µg/mL) | 2580 (≈ 1250 µg/mL) | 
CCn1cc(C(=O)O)c(=O)c2cnc(N3CCN(Cc4cn([C@@H](C)C(=O)O)nn4)CC3)nc21 | 2740 (≈ 1250 µg/mL) | 1370 (≈ 625 µg/mL) | 1370 (≈ 625 µg/mL) | 
O=C(O)c1cn(C2CC2)c2cc(N3CCN(Cc4cn(-c5ccccc5)nn4)CC3)c(F)cc2c1=O | 0.2 (≈ 0.0977 µg/mL) | 16.4 (≈ 8.01 µg/mL) | > 2100 | 0.2 (≈ 0.0977 µg/mL)
CCn1cc(C(=O)O)c(=O)c2cc(F)c(N3CCN(Cc4cn([C@@H](CC(C)C)C(=O)O)nn4)CC3)cc21 | 2430 (≈ 1250 µg/mL) | 1210 (≈ 625 µg/mL) | 1210 (≈ 625 µg/mL) | 
C#CCN1CCN(c2cc3c(cc2F)c(=O)c(C(=O)O)cn3C2CC2)CC1 | 1390 (≈ 512 µg/mL) | > 2770 | > 2770 | > 2770
CCn1cc(C(=O)O)c(=O)c2cnc(N3CCN(Cc4cn(-c5ccc([N+](=O)[O-])cc5)nn4)CC3)nc21 | 0.2 (≈ 0.101 µg/mL) | 127 (≈ 64 µg/mL) | 1010 (≈ 512 µg/mL) | 0.2 (≈ 0.101 µg/mL)
CCn1cc(C(=O)O)c(=O)c2cc(F)c(N3CCN(Cc4cn([C@H](C(=O)O)C(C)C)nn4)CC3)cc21 | 2500 (≈ 1250 µg/mL) | 1250 (≈ 625 µg/mL) | 2500 (≈ 1250 µg/mL) | 
CCn1cc(C(=O)O)c(=O)c2cc(F)c(N3CCN(Cc4cn(-c5ccc(C)cc5)nn4)CC3)cc21 | 32.6 (≈ 16 µg/mL) | 2 (≈ 0.981 µg/mL) | > 2090 | 0.2 (≈ 0.0981 µg/mL)
O=C(O)c1cn(C2CC2)c2cc(N3CCN(Cc4cn([C@@H](Cc5ccccc5)C(=O)O)nn4)CC3)c(F)cc2c1=O | 2230 (≈ 1250 µg/mL) | 2230 (≈ 1250 µg/mL) | 2230 (≈ 1250 µg/mL) | 
CCn1cc(C(=O)O)c(=O)c2cc(F)c(N3CCNCC3)cc21 [NORFLOXACIN] | 7.5 (≈ 2.4 µg/mL) | 1960 (≈ 625 µg/mL) | 15 (≈ 4.79 µg/mL) | 
CCn1cc(C(=O)O)c(=O)c2cnc(N3CCNCC3)nc21 [PIPEMIDIC ACID] | 7.9 (≈ 2.4 µg/mL) | 2060 (≈ 625 µg/mL) | 64.3 (≈ 19.5 µg/mL) | 
CC(C)C[C@@H](C(=O)O)n1cc(CN2CCN(c3cc4c(cc3F)c(=O)c(C(=O)O)cn4C3CC3)CC2)nn1 | 2370 (≈ 1250 µg/mL) | 2370 (≈ 1250 µg/mL) | 2370 (≈ 1250 µg/mL) | 
C#CCN1CCN(c2ncc3c(=O)c(C(=O)O)cn(CC)c3n2)CC1 | > 3000 | 750 (≈ 256 µg/mL) | > 3000 | 750 (≈ 256 µg/mL)
CCn1cc(C(=O)O)c(=O)c2cnc(N3CCN(Cc4cn(CC(=O)N[C@@H](Cc5ccccc5)C(=O)O)nn4)CC3)nc21 | 212 (≈ 125 µg/mL) | 2120 (≈ 1250 µg/mL) | 2120 (≈ 1250 µg/mL) | 
CCn1cc(C(=O)O)c(=O)c2cc(F)c(N3CCN(Cc4cn(-c5ccc([N+](=O)[O-])cc5)nn4)CC3)cc21 | 0.2 (≈ 0.104 µg/mL) | 15.3 (≈ 7.98 µg/mL) | > 1960 | 0.2 (≈ 0.104 µg/mL)
CC(C)[C@@H](C(=O)O)n1cc(CN2CCN(c3cc4c(cc3F)c(=O)c(C(=O)O)cn4C3CC3)CC2)nn1 | 2440 (≈ 1250 µg/mL) | 2440 (≈ 1250 µg/mL) | 2440 (≈ 1250 µg/mL) | 
CCn1cc(C(=O)O)c(=O)c2cnc(N3CCN(Cc4cn(-c5ccccc5)nn4)CC3)nc21 | 0.3 (≈ 0.138 µg/mL) | 556 (≈ 256 µg/mL) | 1110 (≈ 512 µg/mL) | 0.3 (≈ 0.138 µg/mL)
O=C(Cn1cc(CN2CCN(c3cc4c(cc3F)c(=O)c(C(=O)O)cn4C3CC3)CC2)nn1)N[C@@H](Cc1ccccc1)C(=O)O | 2020 (≈ 1250 µg/mL) | 2020 (≈ 1250 µg/mL) | 2020 (≈ 1250 µg/mL) | 
CCn1cc(C(=O)O)c(=O)c2cc(F)c(N3CCN(Cc4cn(CC(=O)N[C@@H](Cc5ccccc5)C(=O)O)nn4)CC3)cc21 | 2060 (≈ 1250 µg/mL) | 1030 (≈ 625 µg/mL) | 2060 (≈ 1250 µg/mL) | 
